Test results published in patent US4226857A, “Synthetic peptides having pituitary growth hormone releasing activity” (priority 1979, dated 1980).
Square brackets hold non-standard residues; d marks the D form. Peptide text beside a SMILES is read from it.

Test system: pituitaries
Experiment: In vitro growth hormone release study (rat pituitary incubation, GH radioimmunoassay)
Assay type: cell-based
Settings: pituitaries of 20 day old female rats, Δ of GH levels between I3, I4 and P2, ± SEM
Description: Female rats of the CD-1 strain were housed in a constant temperature room at 24° C. with 14 hours light and 10 hours darkness. The rats were fed Purina brand rat chow ab libitum.
All studies were started between 0800 and 1000 hours.
Pituitaries were removed from 20 day old female rats. Two pituitaries were incubated at 36° C. in 1 ml of lactated Ringer's solution in 10 ml polytetrafluoroethylene beakers in a Dubnoff Shaker (90 cycles/min.). The pituitaries were incubated a total of 4 hours (P1, P2, I3, and I4). After two successive one hour preincubation periods (P1, P2), the peptide was added to the incubation medium hourly for 2 hours (I3, I4).
This in vitro study was performed in triplicate and a standard radioimmunoassay of growth hormone present in the incubation medium was performed in duplicate. The hormonal activity was calculated as the difference (Δ) of growth hormone (GH) levels between I3, I4 and P2, i.e., (I3 -P2) and (I4 -P2). P values were calculated by Students' t test using six growth hormone values for each value recorded.
The growth hormone radioimmunoassay reagents were distributed by the National Institute of Arthritis and […] (NIAMDD) program. The growth hormone values were calculated in terms of nanograms (ng) of a rat standard with a growth hormone potency of 0.61 units/mg.

[1] = peptide 0.1μg, P <0.001 unless otherwise noted

## NC(=O)[C@@H](Cc1ccccc1)NC(=O)[C@H](Cc1c[nH]c2ccccc12)NC(=O)[C@H](CO)NC(=O)[C@@H](Cc1c[nH]c2ccccc12)NC(=O)[C@@H](N)Cc1ccc(O)cc1 [H2 N--Tyr--D-Trp--Ser--Trp--D-Phe--CONH2, H2 N-Tyr-D-Trp-Ser-Trp-D-Phe-CONH2] (H-Y[dW]SW[dF]-NH2)
[1]
  In vitro growth hormone release (ΔGH): 353 ± 144 ngΔGH/ml incubation medium
Peptide 1μg, P <0.001
  In vitro growth hormone release (ΔGH): 3119 ± 413 ngΔGH/ml incubation medium
Peptide 10μg, P <0.001
  In vitro growth hormone release (ΔGH): 3831 ngΔGH/ml incubation medium

## C[C@H](NC(=O)[C@@H](Cc1c[nH]c2ccccc12)NC(=O)[C@@H](N)Cc1ccc(O)cc1)C(=O)N[C@@H](Cc1c[nH]c2ccccc12)C(=O)N[C@H](Cc1ccccc1)C(N)=O [H2 N--Tyr--D-Trp--Ala--Trp--D-Phe--CONH2, H2 N-Tyr-D-Trp-Ala-Trp-D-Phe-CONH2] (H-Y[dW]AW[dF]-NH2)
[1]
  In vitro growth hormone release (ΔGH): 3409 ± 455 ngΔGH/ml incubation medium
Peptide 0.3μg, P <0.001
  In vitro growth hormone release (ΔGH): 4540 ± 1200 ngΔGH/ml incubation medium
Peptide 1μg, P <0.001
  In vitro growth hormone release (ΔGH): 4611 ± 510 ngΔGH/ml incubation medium
Peptide 10μg, P <0.001
  In vitro growth hormone release (ΔGH): 5000 ± 662 ngΔGH/ml incubation medium
